From publication PMC4908596, “Fusing simulation and experiment: The effect of mutations on the structure and activity of the influenza fusion peptide” (Scientific Reports, 2016)
Ends that are not written are not given here.

Details: pH 5

| Sequence | Kp (lipid/water partition coefficient) |
| --- | --- |
| GLFAAIAAFIEGGWTAMIDAWYGS [G4AG8AG16AG20A] | 333 |
| GLFGAIAGFIEAAWTGMIDGWYGS [G12AG13A] | 442 |
| GLFGAIAGFIEGGATGMIDGWYGS [W14A] | 6265 |
| GLFGAIAGFIEGGWTGMIDGWYGS [WT, reference compound] | 10455 |
